Where two headings read alike, the source gives them in different places.
Key:
[1] = test system: vaccinia virus; assay: microbe, parasite or virus in culture; type: cell-based, vaccinia virus (WR strain); conditions: for EC50: read-out: EC50 for inhibition of vaccinia virus replication
[2] = test system: HSV-1; assay: HSV-1 PFU production in Vero cell cultures; type: cell-based, HSV-1 (MacIntyre strain)
[3] = test system: all cell lines tested; assay: Cytotoxicity in mammalian cell cultures; conditions: for IC50: read-out: IC50 (cellular toxicity by chain length)
Source text: Three assays were used to quantitate the effects of aliphatic alcohols on cell survival and proliferation: 1) counting cells with a hemocytometer and determining the number of cells that exclude trypan blue; 2) measuring the incorporation of ^3H-thymidine into cellular DNA by adding ^3H-thymidine (from New England Nuclear) to the culture medium, lysing the cells with water and harvesting the DNA onto filter paper; and 3) measuring total cellular protein using a sulforhodamine assay adapted for use in 96-well microtiter plates (Skehan et al., J. Natl. Cancer Inst. […] All of these methods are well known cell viability and cytotoxicity assays.

[4] = test system: B cell hybridoma (MBI-9); assay: 3H-thymidine incorporation into DNA of B cell hybridoma; type: cell-based, murine; conditions: Mus musculus, read-out: IC50 (3H-thymidine incorporation)
[5] = test system: Vero cells; conditions: African green monkey
[6] = test system: HSV-2; assay: Inhibition of HSV-2 plaque formation in Vero cells; conditions: for inhibition of viral plaque production at concentrations that were not cytotoxic: 0.2 μM stearyl alcohol, 2 μM arachidyl alcohol; for 50% Inhibition Concentration (mM): alcohol suspension in PLURONIC F-68, Vero cells incubated 12 hr before HSV-2, linear regression, Toxic = monolayer destroyed by end of 12-hour incubation with at least 1.5 mM; for Percent Inhibition of Plaque Formation: PLURONIC F-68 suspension added 12 hr before HSV-2 (erucyl alcohol with the virus), Toxic = monolayer destroyed within 24 hr
[7] = test system: influenza virus; type: in vivo, human; conditions: for highest recorded body temperature (mean): erucyl alcohol 0.15 mM five times per day, erucamide 1.5 mM three times per day, untreated 38.9; for mean duration of flu symptoms: untreated 3 days
[8] = test system: Vero cells; assay: Cytotoxicity to Vero cells (monolayer integrity, trypan blue exclusion); conditions: surfactant suspension
[9] = test system: human foreskin fibroblasts; assay: Cell proliferation (cytostasis), sulforhodamine staining; type: cell-based; conditions: 1,000 cells/well, 96-hours incubation
Description: The effects of n-docosanol and n-docosane suspensions on cell proliferation (cytostasis) were quantitated using the sulforhodamine staining assay on cultures of human foreskin fibroblasts incubated in 96-well plates.
Foreskin fibroblasts were plated with or without aliphatic alcohol suspensions or control surfactant suspensions at 1,000 cells/well (FIG. 6A and FIG. 7) or at 30,000 cells/well (FIG. 6B) in 96 well plates. After incubation for 72 hr or 96 hr at 37° C., cells were precipitated with trichloroacetic acid, stained with sulforhodamine and quantitated by measuring the OD540 in a microtiter plate reader.

[10] = 15 mM n-docosanol, 500 PFU/culture, three days, read-out: EC90 for inhibition of HSV-1 PFU production in the presence of n-docosanol
[11] = Orthopoxvirus vaccinia, Vero, 72 h
[12] = Human alphaherpesvirus 1, Vero, 72 h, read-out: EC90 for inhibition of HSV-1 PFU production, drug used alone
[13] = Human alphaherpesvirus 2, Vero, read-out: Percent Inhibition of Plaque Formation
[14] = Human alphaherpesvirus 2, Vero, read-out: 50% Inhibition Concentration (mM)

`Nc1ncnc2c1ncn2[C@@H]1O[C@H](CO)[C@@H](O)[C@@H]1O` [Ara-A, Adenine 9-β-D-arabinofuranoside] was tested, and the EC50 ([1]; control cultures (medium or PLURONIC F-68), 3 days post-infection) was roughly 20 µM, the “reduction of EC90 by n-docosanol” value ([2]; 15 mM n-docosanol) was 16 fold and the EC90 [2, 10] was roughly 1.4 µM. The EC90 ([2]; control cultures without n-docosanol, 500 PFU/culture, three days, read-out: EC90 for inhibition of HSV-1 PFU production, drug used alone) was roughly 22 µM.

With `O=C(O)P(=O)(O)O` [PFA, phosphonoformic acid] the “interaction of n-docosanol with the antiviral activity of PFA against vaccinia virus” value ([1]; presence or absence of n-docosanol or PLURONIC F-68) was “no drug-drug interaction”, the EC90 [2, 10] was 17 µM and the EC90 ([2]; Human alphaherpesvirus 1, Vero, 72 h, control cultures without n-docosanol, 500 PFU/culture, three days, read-out: EC90 for inhibition of HSV-1 PFU production, drug used alone) was roughly 18 µM.

For `O=c1[nH]c(=O)n([C@H]2C[C@H](O)[C@@H](CO)O2)cc1C(F)(F)F` [Trifluridine, trifluridine deoxyriboside], the EC50 [1, 11] was roughly 2 µM, the “reduction of EC90 by n-docosanol” value ([2]; 15 mM n-docosanol) was 5 fold and the EC90 [2, 12] was roughly 6.8 µM. The EC90 ([2]; read-out: EC90 for inhibition of HSV-1 PFU production in the presence of n-docosanol, 15 mM n-docosanol, 500 PFU/culture, three days) was roughly 1.35 µM.

In the case of `CCCCCCCCCCCCCCCCCCCCO` [arachidyl alcohol], the IC50 [3] is reported as 1500 µM, the “cytotoxicity of the suspensions (in words)” value (from here on “cytotoxicity”) ([3]; surfactant suspensions) is reported as “extremely cytotoxic” and the IC50 ([4]; 48 hr incubation) is reported as roughly 1700 µM. For the same compound, the “concentration that was not cytotoxic” value [5] was 2 µM, the “inhibition of viral plaque production at concentrations that were not cytotoxic” value [6] was “no inhibition of viral plaque production” and the “50% Inhibition Concentration (mM)” value [6] was “Toxic**”.

`CCCCCCCC/C=C\CCCCCCCCCCCC(N)=O` [erucamide, cis-13-docosenoamide] was tested, and the “highest recorded body temperature (mean)” value [7] was “about 37 °C”, the “mean duration of flu symptoms” value [7] was “two” and the “concentrations toxic to Vero cells (cells rounded and detached)” value [5] was no less than 3000 µM. The “concentrations tolerable to the cells” value [8] was no more than 1700 µM, the inhibition at 30 µM [6, 13] was 34% and the inhibition at 590 µM [6, 13] was 42%. It also gave an inhibition at 890 µM [6, 13] of 44%, an inhibition at 1200 µM [6, 13] of 58% and an inhibition at 1500 µM [6, 13] of 68%. For the same compound, the inhibition at 1700 µM [6, 13] was 78%.

With `CCCCCCCC/C=C\CCCCCCCCCCCCO` [erucyl alcohol, cis-13-docosen-1-ol] the “highest recorded body temperature (mean)” value [7] was 37.8 °C, the “mean duration of flu symptoms” value [7] was 1.7 days and the “frequency of fever per flu episode” value ([7]; in vivo) was “one to three”. The “concentrations tolerable to the cells” value [5] was no more than 1000 µM, the “concentrations toxic to Vero cells (cells rounded and detached)” value [5] was 2000 to 15000 µM and the “EC50 lower than the concentration required for n-docosanol” value ([6]; 0.15 mM vs 9 mM) was 60 fold. For the same compound, the “Percent Inhibition of Plaque Formation” value ([6]; 2 mM) was “Toxic”, the “Percent Inhibition of Plaque Formation” value ([6]; 4 mM) was “Toxic” and the “Percent Inhibition of Plaque Formation” value ([6]; 8 mM) was “Toxic”. The “Percent Inhibition of Plaque Formation” value ([6]; 15 mM) was “Toxic”, the direct virucidal effect ([6]; HSV-2 incubated with the suspension for 2 hours, subsequent plaque formation on Vero cells) was “did not inactivate the virus” and the inhibition at 250 µM [6, 13] was 70%. The inhibition at 500 µM [6, 13] was 91%, the inhibition at 1000 µM [6, 13] was 93% and the EC50 ([6]; Human alphaherpesvirus 2, Vero, read-out: effective concentration required to inhibit plaque formation by 50% (EC50), surfactant suspension, Example 5) was 0.15 mM.

With `CCCCCCCCCCCCCCCCCCCCCO` [heneicosanol] the IC50 [3] was greater than 15000 µM, the “cytotoxicity” value ([3]; surfactant suspensions) was “same minimal level of cytotoxicity” and the EC50 [6, 14] was 16 mM.

`CCCCCCCCCCCCCCCCCCCCCCCCO` [lignoceryl alcohol, n-tetracosanol] was tested, and the “cytotoxicity” value ([3]; surfactant suspensions) was “same minimal level of cytotoxicity” and the EC50 [6, 14] was 14.1 mM.

For `CCCCCCCCCCCCCCCCCCCCCC` [n-docosane], the “antiproliferation effects compared to the surfactant control” value [9] was “minimal antiproliferation effects”, the inhibition at 1000 µM [6, 13] was 28% and the inhibition at 2000 µM [6, 13] was 31%. For the same compound, the inhibition at 4000 µM [6, 13] was 42%, the inhibition at 8000 µM [6, 13] was 55% and the inhibition at 15000 µM [6, 13] was 58%.

For `CCCCCCCCCCCCCCCCCCCCCC(=O)O` [n-docosanoic acid], the “concentrations tolerable to the cells” value [8] was no more than 2000 µM, the “Percent Inhibition of Plaque Formation” value ([6]; 4 mM) was “Toxic” and the “Percent Inhibition of Plaque Formation” value ([6]; 8 mM) was “Toxic”. For the same compound, the “Percent Inhibition of Plaque Formation” value ([6]; 15 mM) was “Toxic^†”, the inhibition at 500 µM [6, 13] was 26% and the inhibition at 1000 µM [6, 13] was 16%. The inhibition at 2000 µM [6, 13] was 30%.

`CCCCCCCCCCCCCCCCCCCCCCCCCCCCO` [n-octacosanol] was tested, and the “cytotoxicity” value [3] was “same minimal level of cytotoxicity” and the EC50 [6, 14] was 10.5 mM.

With `NC(=O)c1ncn([C@@H]2O[C@H](CO)[C@@H](O)[C@H]2O)n1` [ribavirin] the EC50 [1, 11] was roughly 25 µM, the “reduction of EC90 by n-docosanol” value ([2]; 15 mM n-docosanol) was 75 fold and the EC90 [2, 10] was roughly 0.33 µM. For the same compound, the EC90 [2, 12] was roughly 24.6 µM.

In the case of `CCCCCCCCCCCCCCCCCCO` [stearyl alcohol], the IC50 [3] is reported as less than 35 µM, the IC50 [4] is reported as less than 35 µM and the “inhibition of viral plaque production at concentrations that were not cytotoxic” value [6] is reported as “no inhibition of viral plaque production”. For the same compound, the “50% Inhibition Concentration (mM)” value [6] was “Toxic**”.

From patent publication US6440980B1, “Synergistic inhibition of viral replication by long-chain hydrocarbons and nucleoside analogs” (Avanir Pharmaceuticals, priority 1996, dated 2002)
